Experiments:
[1] = system: blackgrass; assay: Test B postemergence herbicide test; type: in vivo, Alopecurus myosuroides; settings: scale 0 (no effect) to 100 (complete control)
Summary of the method: (§1)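 Greenhouse test; postemergence application to plants at 1–4 leaves (2–18 cm); paddy species at 2 leaves; evaluated visually vs controls at 13–15 days; scale 0–100 (100 = complete control).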

[2] = system: lambsquarters; assay: Test B pre-/postemergence herbicide test; type: in vivo, Chenopodium album
Summary of the method: (§2)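 Greenhouse pot assay with simultaneous preemergence (treated seed) and postemergence (2–18 cm seedlings) applications of surfactant-containing, non-phytotoxic solvent formulations. Response scored visually 13–15 days later on a 0–100 scale, 100 meaning complete control.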

[3] = system: rice; assay: Test B flooded paddy test; type: in vivo, Oryza sativa; settings: 1000 g ai/ha, visual rating, scale 0 to 100 (0 no effect, 100 complete control), 13 to 15 days
Summary of the method: as §1

[4] = system: rice; assay: Test C flooded paddy test; type: in vivo, Oryza sativa
Summary of the method: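 Postemergence sprays applied to plants 2 to 18 cm tall (1- to 4-leaf stage); paddy species grown to 2-leaf stage under flooding. After 12 to 14 days in greenhouse, visual rating versus untreated controls on 0–100 scale (0 no effect, 100 complete control).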

[5] = system: velvetleaf; assay: Test B pre-/postemergence herbicide test; type: in vivo, Abutilon theophrasti
Summary of the method: as §2

[6] = system: smallflower umbrella sedge; assay: Test C flooded paddy test; type: in vivo, Cyperus difformis
[7] = system: ducksalad; assay: Test B flooded paddy test; type: in vivo, Heteranthera limosa; settings: 1000 g ai/ha, visual rating, scale 0 to 100 (0 no effect, 100 complete control), 13 to 15 days
Summary of the method: as §1

[8] = system: small flower umbrella sedge; assay: Test B flooded paddy test; type: in vivo, Cyperus difformis; settings: 1000 g ai/ha, visual rating, scale 0 to 100 (0 no effect, 100 complete control), 13 to 15 days
Summary of the method: as §1

[9] = system: pigweed; assay: Test B pre-/postemergence herbicide test; type: in vivo, Amaranthus retroflexus
Summary of the method: as §2

[10] = system: large crabgrass; assay: Test B pre-/postemergence herbicide test; type: in vivo, Digitaria sanguinalis
Summary of the method: as §2

[11] = system: cocklebur; assay: Test B pre-/postemergence herbicide test; type: in vivo, Xanthium strumarium
Summary of the method: as §2

[12] = system: Surinam grass; assay: Test B pre-/postemergence herbicide test; type: in vivo, Urochloa decumbens
Summary of the method: as §2

[13] = system: barnyardgrass; assay: Test B pre-/postemergence herbicide test; type: in vivo, Echinochloa crus-galli
Summary of the method: as §2

[14] = system: corn; assay: Test B pre-/postemergence herbicide test; type: in vivo, Zea mays
Summary of the method: as §2

[15] = system: morningglory; assay: Test B pre-/postemergence herbicide test; type: in vivo, Ipomoea coccinea
Summary of the method: as §2

[16] = system: rice; assay: Test B pre-/postemergence herbicide test; type: in vivo, Oryza sativa; settings: preemergence, 125 g ai/ha; 0 to 100 scale, 0 is no effect, 100 is complete control
Summary of the method: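 Species tested were Echinochloa crus-galli, Ipomoea coccinea, Xanthium strumarium and Oryza sativa, treated both before emergence and at the 1- to 4-leaf stage; rice and barnyardgrass were also tested under flooding at 2 leaves. Greenhouse incubation lasted 13–15 days before visual 0–100 scoring.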

[17] = system: wild oat; assay: Test B postemergence herbicide test; type: in vivo, Avena fatua; settings: scale 0 (no effect) to 100 (complete control)
Summary of the method: (§3)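 Each value is a visual 0–100 response rating taken against controls 13 to 15 days after treatment in the greenhouse. Plants received formulated chemical postemergence at the 1- to 4-leaf stage or, in flooded paddy, at the 2-leaf stage.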

[18] = system: barnyardgrass; assay: Test B flooded paddy test; type: in vivo, Echinochloa crus-galli; settings: 1000 g ai/ha, visual rating, scale 0 to 100 (0 no effect, 100 complete control), 13 to 15 days
Summary of the method: as §1

[19] = system: barnyardgrass; assay: Test C flooded paddy test; type: in vivo, Echinochloa crus-galli
Summary of the method: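 Ratings (0 = no effect, 100 = complete control) come from visual comparison with untreated plants after 12 to 14 days in the greenhouse. Treatment was postemergence at the 1- to 4-leaf stage (2–18 cm), or at the 2-leaf stage for the flooded paddy barnyardgrass.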

[20] = system: ducksalad; assay: Test C flooded paddy test; type: in vivo, Heteranthera limosa
[21] = system: wheat; assay: Test B postemergence herbicide test; type: in vivo, Triticum aestivum; parameters: key to Wheat plant response rating: 0 = no effect, 100 = complete control; settings: scale 0 (no effect) to 100 (complete control)
Summary of the method: as §3

[22] = system: giant foxtail; assay: Test B pre-/postemergence herbicide test; type: in vivo, Setaria faberi
Summary of the method: as §2

[23] = Postemergence, 500 g ai/ha, visual rating after 13 to 15 days
[24] = postemergence, 125 g ai/ha, visual rating
[25] = Postemergence, 500 g ai/ha, visual rating after 13 to 15 days, scale 0 (no effect) to 100 (complete control)
[26] = postemergence, 125 g ai/ha, visual rating, scale 0 (no effect) to 100 (complete control)
[27] = preemergence, 125 g ai/ha, 0 to 100 scale, 0 is no effect, 100 is complete control
[28] = 62 g ai/ha, scale 0 to 100 (0 no effect, 100 complete control)
[29] = 125 g ai/ha, scale of 0 to 100, 0 is no effect, 100 is complete control
[30] = 250 g ai/ha, scale of 0 to 100, 0 is no effect, 100 is complete control
[31] = 500 g ai/ha, visual rating after 12 to 14 days, scale 0 to 100 (0 no effect, 100 complete control)
[32] = Preemergence, 500 g ai/ha, scale 0 to 100

CCOC(=O)c1cc(NC(=O)c2cc(C(C)(C)C)nn2CC)c(F)cc1OC [Compound 76]
Plant response rating, Blackgrass [1, 23]: 50
Blackgrass plant response rating [1, 24]: 10
Plant response rating, Lambsquarters [2, 25]: 60
Lambsquarters plant response rating [2, 26]: 30
Plant response rating, Lambsquarters [2, 27]: 50
Rice plant response rating [3]: 60
Rice plant response rating [4, 28]: 75
Rice plant response rating [4, 29]: 80
Rice plant response rating [4, 30]: 85
Plant response rating, Rice [4, 31]: 90
Plant response rating, Velvetleaf [5, 25]: 40
Velvetleaf plant response rating [5, 26]: 40
Plant response rating, Velvetleaf [5, 27]: 30
Sedge, Umbrella plant response rating [6, 28]: 80
Sedge, Umbrella plant response rating [6, 29]: 85
Sedge, Umbrella plant response rating [6, 30]: 85
Plant response rating, Sedge, Umbrella [6, 31]: 90
Ducksalad plant response rating [7]: 100
Sedge, Umbrella plant response rating [8]: 60
Plant response rating, Pigweed [9, 25]: 100
Pigweed plant response rating [9, 26]: 100
Plant response rating, Pigweed [9, 27]: 100
Plant response rating, Crabgrass, Large [10, 25]: 20
Crabgrass, Large plant response rating [10, 32]: 90
Crabgrass, Large plant response rating [10, 26]: 10
Plant response rating, Crabgrass, Large [10, 27]: 80
Plant response rating, Cocklebur [11, 25]: 90
Cocklebur plant response rating [11, 32]: 40
Cocklebur plant response rating [11, 26]: 40
Plant response rating, Surinam Grass [12, 25]: 20
Surinam Grass plant response rating [12, 26]: 20
Plant response rating, Surinam Grass [12, 27]: 70
Plant response rating, Barnyardgrass [13, 25]: 20
Barnyardgrass plant response rating [13, 32]: 100
Barnyardgrass plant response rating [13, 26]: 10
Plant response rating, Barnyardgrass [13, 27]: 80
Plant response rating, Corn [14, 25]: 30
Corn plant response rating [14, 32]: 50
Corn plant response rating [14, 26]: 10
Plant response rating, Corn [14, 27]: 30
Plant response rating, Morningglory [15, 25]: 10
Morningglory plant response rating [15, 26]: 10
Plant response rating, Morningglory [15, 27]: 10
Plant response rating, Rice [16]: 50
Plant response rating, Oat, Wild [17, 23]: 40
Oat, Wild plant response rating [17, 24]: 30
Barnyardgrass plant response rating [18]: 70
Barnyardgrass plant response rating [19, 28]: 50
Barnyardgrass plant response rating [19, 29]: 70
Barnyardgrass plant response rating [19, 30]: 80
Plant response rating, Barnyardgrass [19, 31]: 90
Ducksalad plant response rating [20, 28]: 45
Ducksalad plant response rating [20, 29]: 50
Ducksalad plant response rating [20, 30]: 75
Plant response rating, Ducksalad [20, 31]: 80
Plant response rating, Wheat [21, 23]: 30
Wheat plant response rating [21, 24]: 20
Plant response rating, Foxtail, Giant [22, 25]: 40
Foxtail, Giant plant response rating [22, 32]: 100
Foxtail, Giant plant response rating [22, 26]: 20
Plant response rating, Foxtail, Giant [22, 27]: 90

Source: patent US20060069132A1, “Azolecarboxamide herbicides” (priority 2004, published 2006)
